Consider 17 compounds from patent US9884821B2, “N1-cyclic amine-N5-substituted biguanide derivatives, methods of preparing the same and pharmaceutical composition comprising the same” (IMMUNOMET THERAPEUTICS INC., priority 2013, dated 2018).

In one assay the test system is AMPK. Briefly: AMPK activation effect (AMPK [pT172] ELISA) in MCF7 cells. The format is cell-based, human. Conditions: 24 hours; for AMPK activation effect (%) 5 μM / AMPK activation effect (%) 10 μM / AMPK activation effect (%) 50 μM: AMPKα Thr172 phosphorylation relative to untreated cells; for AC150: concentration at which AMPK activation reached 150%. How it is done: ELISA kit (Invitrogen, Catalog No. KH00651).
MCF7 cells were cultured in a DMEM medium supplemented with 10% fatal bovine serum (commercially available from Gibco Life Technologies (US)). Thereafter, the cultured MCF7 cells were put into a 6-well plate with approximately 5×10^5 cells per well, and cultured in an incubator supplied with 5% CO2. Culture media were treated with the derivatives synthesized in the Examples at concentrations of 5, 10 and 50 uM, and then cultured for 24 hours. […] Subsequently, the cells were lysed according to a method presented in the operation manual of the AMPK [pT172] ELISA kit, and 20 μg of a cell lysate was then yielded through protein assay. Thereafter, the AMPK activation effect was obtained by determining a degree of phosphorylation of a 172nd threonine residue (Thr172) of the AMPKα from the cell lysate according to the method presented in the operation manual of the AMPK [pT172] ELISA kit.

The next assay deals with HCT116 cells. Briefly: Effect of inhibiting cancer cell proliferation (MTT) in HCT116 cells. Format: cell-based, human. To be noted: Homo sapiens, HCT-116, 48 h; for inhibition at 25 µM: read-out: Cell growth inhibition (%) at 25 μM; for inhibition at 100 µM: read-out: Cell growth inhibition (%) at 100 μM. The text has this:
HCT116 cells derived from human colorectal cancer were used, and an effect of inhibiting cancer cell proliferation of the biguanide derivative was confirmed by measuring a concentration value (cell growth inhibition concentration, GIC50) at which cell growth was inhibited by 50% using a 3-(4,5-dimethylthiazol-2-yl)-2,5-diphenyltetrazolium bromide (MTT) reagent.
First, HCT116 cells (purchased from the KCLB) were put on a 96-well plate and cultured in a DMEM medium supplemented with 10% fatal bovine serum (commercially available from Gibco Life Technologies (US)) for 16 hours so that approximately 5,000 cells were counted in each well. Subsequently, to obtain the GIC50 value of each compound, the culture media were treated with 100 μM, 25 μM, 6.25 μM, 1.56 μM or 0.39 μM of the compound, and then cultured for 48 hours. In order to determine whether the cells survived after treatment with the compounds, MTT (commercially available from AMRESCO (US)) was added to the culture media which were then cultured for another 3 hours. Formed formazane crystals were dissolved using dimethyl sulfoxide (DMSO) and the absorbance of the resulting solution was measured at 560 nm. After the 48-hour culture, a ratio of a living cell count on a well plate treated with the compounds synthesized in the Examples to a cell count cultured on a well plate not treated with the compound was indicated as cell viability (%) according to the concentration of each treated compound. The cell viability (%) was used to plot a cell viability curve graph and calculate a concentration (GIC50) value of the compound at which the growth was inhibited by 50%, thereby confirming the inhibition effect of cancer cell proliferation.

In the case of `CC1CCCCN1C(=N)NC(=N)Nc1ccc(C(F)(F)F)cc1.Cl` (centres unmarked) [Example 74, N1-(2-methyl)piperidine-N5-(4-trifluoromethyl)phenyl biguanide hydrochloride], in the assay on AMPK, the “AMPK activation effect (%) 5 μM” value is on record as 199%, the “AMPK activation effect (%) 10 μM” value was determined as 410% and the AC150 was determined as 2.0 µM. In addition, in the assay with HCT116 cells, the GI50 is 8.7 µM and the inhibition at 25 µM was determined as 100%.

On to `CCCCCCNC(=N)NC(=N)N1CC=CCC1.Cl` [Example 53, N1-1,2,3,6-tetrahydropyridine-N5-hexyl biguanide hydrochloride], for which, in the assay with AMPK, the “AMPK activation effect (%) 10 μM” value amounted to 311%, the “AMPK activation effect (%) 50 μM” value is 589% and the AC150 was 2.3 µM. For the same compound, in the assay with HCT116 cells, it took 43.7 µM to inhibit growth by half (GI50) and the inhibition at 100 µM was 97.9%.

Regarding `CC1CCCN(C(=N)NC(=N)NCc2ccc(C(F)(F)F)cc2)C1.Cl` (centres unmarked) [Example 86, N1-(3-methyl)piperidine-N5-(4-trifluoromethyl)benzyl biguanide hydrochloride], in the assay on AMPK, the “AMPK activation effect (%) 5 μM” value came to 147%, the “AMPK activation effect (%) 10 μM” value was 330% and the AC150 turned out to be 2.3 µM. Besides, in the assay on HCT116 cells, growth was halved (GI50) at 27.6 µM and the inhibition at 25 µM was found to be 49%.

On to `COc1cccc(NC(=N)NC(=N)N2CC=CCC2)c1.Cl` [Example 41, N1-1,2,3,6-tetrahydropyridine-N5-(3-methoxyl)phenyl biguanide hydrochloride], for which, in the assay on AMPK, the “AMPK activation effect (%) 10 μM” value is listed as 125%, the “AMPK activation effect (%) 50 μM” value turned out to be 201% and the AC150 is 22.4 µM. In the assay on HCT116 cells, the GI50 stood at 88.2 µM and the inhibition at 100 µM came to 55.9%.

For `COc1ccc(NC(=N)NC(=N)N2CC=C(C)C2)cc1.Cl` [Example 22, N1-(3-methyl)-1,2-dihydropyrrole-N5-(4-methoxyl)phenyl biguanide hydrochloride], in the assay on AMPK, the “AMPK activation effect (%) 10 μM” value stood at 116%, the “AMPK activation effect (%) 50 μM” value came out at 209% and the AC150 stood at 24.5 µM. In the assay with HCT116 cells, halving of growth (GI50) required 18.6 µM and the inhibition at 100 µM worked out at 37.1%.

In the case of `Cl.N=C(NC(=N)N1CC=CCC1)Nc1ccc(OC(F)(F)F)c(F)c1` [Example 34, N1-1,2,3,6-tetrahydropyridine-N5-(3-fluoro, 4-trifluoromethoxy)phenyl biguanide hydrochloride], in the assay on AMPK, the “AMPK activation effect (%) 10 μM” value is recorded as 925% and the AC150 is 0.29 µM. Also, in the assay on HCT116 cells, it took 6.6 µM to inhibit growth by half (GI50) and the inhibition at 100 µM amounted to 99.4%.

With `Cl.N=C(NCc1ccc(C(F)(F)F)cc1)NC(=N)N1CC=CCC1` [Example 56, N1-1,2,3,6-tetrahydropyridine-N5-(4-trifluoromethyl)benzyl biguanide hydrochloride], in the assay on AMPK, the “AMPK activation effect (%) 10 μM” value is 389%, the “AMPK activation effect (%) 50 μM” value amounted to 671% and the AC150 turned out to be 2.1 µM. In addition, in the assay with HCT116 cells, the GI50 stood at 26.9 µM and the inhibition at 100 µM was found to be 97.7%.

For the compound `CC1CCCCN1C(=N)NC(=N)Nc1cccc(C(F)(F)F)c1.Cl` (centres unmarked) [Example 79, N1-(2-methyl)piperidine-N5-(3-trifluoromethyl)phenyl biguanide hydrochloride], in the assay with AMPK, the “AMPK activation effect (%) 5 μM” value came to 177%, the “AMPK activation effect (%) 10 μM” value was 515% and the AC150 was found to be 1.9 µM. Besides, in the assay with HCT116 cells, growth was halved (GI50) at 9.4 µM and the inhibition at 25 µM came out at 98.9%.

Regarding `CC1CCCN(C(=N)NC(=N)Nc2cccc(OC(F)(F)F)c2)C1.Cl` (centres unmarked) [Example 83, N1-(3-methyl)piperidine-N5-(3-trifluoromethoxy)phenyl biguanide hydrochloride], in the assay on AMPK, the “AMPK activation effect (%) 5 μM” value is on record as 352%, the “AMPK activation effect (%) 10 μM” value is recorded as 398% and the AC150 came to 0.5 µM. Moreover, in the assay with HCT116 cells, the GI50 was 6.8 µM and the inhibition at 25 µM is 100%.

`Cl.N=C(NC(=N)N1CC=CC1)Nc1ccc(C(F)(F)F)c(F)c1` [Example 47, N1-1,2-dihydropyrrole-N5-(3-fluoro, 4-trifluoromethyl)phenyl biguanide hydrochloride]: in the assay on AMPK, the “AMPK activation effect (%) 10 μM” value is 758% and the AC150 was found to be 1.0 µM. For the same compound, in the assay on HCT116 cells, the GI50 was determined as 10.8 µM and the inhibition at 100 µM is 100%.

Consider `CC1=CCN(C(=N)NC(=N)Nc2cccc(C(F)(F)F)c2)C1.Cl` [Example 19, N1-(3-methyl)-1,2-dihydropyrrole-N5-(3-trifluoromethyl)phenyl biguanide hydrochloride], for which, in the assay with AMPK, the “AMPK activation effect (%) 10 μM” value was determined as 306% and the AC150 amounted to 1.5 µM. Further, in the assay with HCT116 cells, halving of growth (GI50) required 9.1 µM and the inhibition at 100 µM came to 99.6%.

For `CC1=CCN(C(=N)NC(=N)Nc2ccc(Cl)c(C(F)(F)F)c2)C1.Cl` [Example 18, N1-(3-methyl)-1,2-dihydropyrrole-N5-(4-chloro, 3-trifluoromethyl)phenyl biguanide hydrochloride], the AC150 in the assay on AMPK was determined as 0.81 µM. In the assay on HCT116 cells, the GI50 was 2.6 µM and the inhibition at 100 µM is 99.5%.

In the case of `Cl.N=C(NCc1ccc(OC(F)(F)F)cc1)NC(=N)N1CC=CCC1` [Example 54, N1-1,2,3,6-tetrahydropyridine-N5-(4-trifluoromethoxy)benzyl biguanide hydrochloride], in the assay on AMPK, the “AMPK activation effect (%) 10 μM” value is 545%, the “AMPK activation effect (%) 50 μM” value worked out at 650% and the AC150 came to 0.87 µM. In addition, in the assay on HCT116 cells, the GI50 came to 14.6 µM and the inhibition at 100 µM stood at 98.1%.

With `CC1CCCCN1C(=N)NC(=N)Nc1ccc(OC(F)(F)F)cc1.Cl` (centres unmarked) [Example 72, N1-(2-methyl)piperidine-N5-(4-trifluoromethoxy)phenyl biguanide hydrochloride], in the assay with AMPK, the “AMPK activation effect (%) 5 μM” value is 210%, the “AMPK activation effect (%) 10 μM” value was determined as 386% and the AC150 was found to be 2.0 µM. In the assay with HCT116 cells, growth was halved (GI50) at 8 µM and the inhibition at 25 µM came out at 100%.

Turning to `COc1cccc(NC(=N)NC(=N)N2CC=CC2)c1.Cl` [Example 43, N1-1,2-dihydropyrrole-N5-(3-methoxyl)phenyl biguanide hydrochloride], in the assay with AMPK, the “AMPK activation effect (%) 10 μM” value came to 200%, the “AMPK activation effect (%) 50 μM” value turned out to be 466% and the AC150 stood at 4.7 µM. Besides, in the assay on HCT116 cells, the GI50 worked out at 114 µM and the inhibition at 100 µM came to 44.9%.

For the compound `CC1CCCC(C)N1C(=N)NC(=N)Nc1ccc(F)c(C(F)(F)F)c1.Cl` (centres unmarked) [Example 93, N1-(2,6-dimethyl)piperidine-N5-(4-fluoro, 3-trifluoromethyl)phenyl biguanide hydrochloride], in the assay with AMPK, the “AMPK activation effect (%) 5 μM” value stood at 190%, the “AMPK activation effect (%) 10 μM” value turned out to be 422% and the AC150 came out at 2.0 µM. For the same compound, in the assay on HCT116 cells, growth was halved (GI50) at 3 µM and the inhibition at 25 µM was found to be 100%.

As to `CC1CCCC(C)N1C(=N)NC(=N)Nc1cccc(C(F)(F)F)c1.Cl` (centres unmarked) [Example 92, N1-(2,6-dimethyl)piperidine-N5-(3-trifluoromethyl)phenyl biguanide hydrochloride], in the assay with AMPK, the “AMPK activation effect (%) 5 μM” value was found to be 324%, the “AMPK activation effect (%) 10 μM” value turned out to be 417% and the AC150 came out at 0.8 µM. For the same compound, in the assay on HCT116 cells, halving of growth (GI50) required 7.5 µM and the inhibition at 25 µM came to 100%.
